Reference: US9725720B2, “Low molecular weight cationic lipids for oligonucleotide delivery” (SIRNA THERAPEUTICS, INC., priority 2010, dated 2017)

How the values were obtained:
[1] = test system: mRNA transcript for the firefly (Photinus pyralis) luciferase gene; experiment: Mouse in vivo evaluation of efficacy (luciferase siRNA LNP, LSL-Luc transgenic mice, IVIS imaging); conditions: RDV containing the compound + Luc siRNA, tail vein, 0.1 to 0.5 mg/kg siRNA, 48 hours post dose; compared with RDV containing octyl-CLinDMA (OCD); FIG. 1
Protocol: LNPs utilizing Compounds 1-12, in the nominal compositions described immediately above, were evaluated for in vivo efficacy. The siRNA targets the mRNA transcript for the firefly (Photinus pyralis) luciferase gene (Accession #M15077). […] The in vivo luciferase model employs a transgenic mouse in which the firefly luciferase coding sequence is present in all cells. ROSA26-LoxP-Stop-LoxP-Luc (LSL-Luc) transgenic mice licensed from the Dana Farber Cancer Institute are Induced to express the Luciferase gene by first removing the LSL sequence with a recombinant Ad-Cre virus (Vector Biolabs). Due to the organotropic nature of the virus, expression is limited to the liver when delivered via tail vein injection. Luciferase expression levels in liver are quantitated by measuring light output, using an IVIS imager (Xenogen) following administration of the luciferin substrate (Caliper Life Sciences). Pre-dose luminescence levels are measured prior to administration of the RDVs. Luciferin in PBS (15 mg/mL) is intraperitoneally (IP) injected in a volume of 150 μL. After a four minute incubation period mice are anesthetized with isoflurane and placed in the IVIS imager. The RDVs (containing siRNA) in PBS vehicle were tail vein injected n a volume of 0.2 mL. […] In vivo efficacy results are expressed as % inhibition of luminescence relative to pre-dose luminescence levels. […]

[2] = Rat in vivo toxicity: survival after LNP dosing; conditions: for rats that failed to survive 48 hours: 3 mg/kg
[3] = Determination of cationic lipid levels in rat liver (LC/MS-MS); format: in vivo; conditions: rats dosed with RDV containing the compound; compared with RDV containing DLinKC2DMA (Compound 20) or MC3 (Compound 21); FIG. 3
Protocol: Liver tissue was weighed into 20-ml vials and homogenized in 9 v/w of water using a GenoGrinder 2000 (OPS Diagnostics, 1600 strokes/min, 5 min). A 50 μL aliquot, of each tissue homogenate was mixed with 300 μL of extraction/protein precipitating solvent (50/50 acetonitrile/methanol containing 500 nM internal standard) and the plate was centrifuged to sediment precipitated protein. A volume of 200 μL of each supernatant was then transferred to separate wells of a 96-well plate and 10 μl samples were directly analyzed by LC/MS-MS.
Standards were prepared by spiking known amounts of a methanol stock solution of compound into untreated rat liver homogenate (9 vol water/weight liver). Aliquots (50 μL) each standard/liver homogenate was mixed with 300 μL of extraction/protein precipitating solvent (50/50 acetonitrile/methanol containing 500 nM internal standard) and the plate was centrifuged to sediment precipitated protein. A volume of 200 μL of each supernatant was transferred to separate wells of a 96-well plate and 10 μl of each standard was directly analyzed by LC/MS-MS.
Absolute quantification versus standards prepared and extracted from liver homogenate was performed using an Aria LX-2 HPLC system (Thermo Scientific) coupled to an API 4000 triple quadrupole mass spectrometer (Applied Biosystems). […]

Row | SMILES | in vivo efficacy (% inhibition of luminescence relative to pre-dose luminescence levels) [1] | rats that survived at 48 hours post dose ([2]; female, Sprague-Dawley (Crl:CD(SD)), rat, in vivo, 48 h) | cationic lipid liver levels [3] | rats that failed to survive 48 hours [2]
1 | CCCCC/C=C\C/C=C\CCCCCCCCOC[C@H](CCCCCCCCC)N(C)C [Compound 1, (2S)—N,N-dimethyl-1-[(9Z,12Z)-octadeca-9,12-dien-1-yloxy]undecan-2-amine] | Greater efficacy | 1 out of 4 | lower | –
2 | CCCCC/C=C\C/C=C\CCCCCCCCC1(CCCCCCCC/C=C\C/C=C\CCCCC)OCC(CCN(C)C)O1 (centres unmarked) [Compound 20, DLinKC2DMA] | – | – | – | 3 out of 4
3 | CCCCC/C=C\C/C=C\CCCCCCCCC(CCCCCCCC/C=C\C/C=C\CCCCC)OC(=O)CCCN(C)C [Compound 21, MC3] | – | – | – | 2 out of 4
